Data as given in US20100267561A1, “HERBICIDAL PYRIDAZINONE DERIVATIVES” (priority 2007, published 2010).

Experiments:
Assay in all cases: Test B pre-/postemergence plant response
Assay type in all cases: in vivo
[1] = tested on: Russian thistle (Salsola iberica); settings: Preemergence
Description: (§1) Seeds of plant species selected from blackgrass (Alopecurus myosuroides), downy bromegrass (Bromus tectorum), green foxtail (Setaria viridis), Italian ryegrass (Lolium multiflorum), wheat (Triticum aestivum), wild oat (Avena fatua), catchweed bedstraw (Galium aparine), bermudagrass (Cynodon dactylon), surinam grass (Brachiaria decumbens), cocklebur (Xanthium strumarium), corn (Zea mays), large crabgrass (Digitaria sanguinalis), woolly cupgrass (Eriochloa villosa), giant foxtail (Setaria faberii), goosegrass (Eleusine indica), johnsongrass (Sorghum halepense), kochia (Kochia scoparia), lambsquarters (Chenopodium album), morningglory (Ipomoea coccinea), eastern black (E.B.) nightshade (Solanum ptycanthum), yellow nutsedge (Cyperus esculentus), pigweed (Amaranthus retroflexus), common ragweed (Ambrosia elation), Russian thistle (Salsola iberica), soybean (Glycine max), common (oilseed) sunflower (Helianthus annuus), and velvetleaf (Abutilon theophrasti) were planted and treated preemergence with test chemicals formulated in a non-phytotoxic solvent mixture which included a surfactant.
(§2) At the same time, plants selected from these crop and weed species and also winter barley (Hordeum vulgare), canarygrass (Phalaris minor), chickweed (Stellaria media) and windgrass (Apera spica-venti) were treated with postemergence applications of some of the test chemicals formulated in the same manner. Plants ranged in height from 2 to 18 cm (1- to 4-leaf stage) for postemergence treatments.
(§3) Plant species in the flooded paddy test consisted of rice (Oryza sativa), umbrella sedge (Cyperus difformis), ducksalad (Heteranthera limosa) and barnyardgrass (Echinochloa crus-galli) grown to the 2-leaf stage for testing. At time of treatment, test pots were flooded to 3 cm above the soil surface, treated by application of test compounds directly to the paddy water, and then maintained at that water depth for the duration of the test. Treated plants and controls were maintained in a greenhouse for 13 to 15 days, after which time all species were compared to controls and visually evaluated. Plant response ratings, summarized in Table B, are based on a scale of 0 to 100 where 0 is no effect and 100 is complete control. A dash (-) response means no test result.

[2] = tested on: blackgrass (Alopecurus myosuroides); settings: for Blackgrass plant response rating: 8 g ai/ha
Description: as §1, §2, §3

[3] = tested on: cocklebur (Xanthium strumarium); settings: for Cocklebur plant response rating: 8 g ai/ha
Description: as §1, §2, §3

[4] = tested on: common (oilseed) sunflower (Helianthus annuus); settings: Preemergence
Description: as §1, §2, §3

[5] = tested on: common ragweed (Ambrosia elation); settings: for Ragweed plant response rating: 8 g ai/ha
Description: as §1, §2, §3

corn (Zea mays) = settings: for Corn plant response rating: 8 g ai/ha
Description: as §1, §2, §3

[6] = tested on: downy bromegrass (Bromus tectorum); settings: for Bromegrass, Downy plant response rating: 8 g ai/ha
Description: as §1, §2, §3

[7] = tested on: eastern black (E.B.) nightshade (Solanum ptycanthum); settings: Preemergence
Description: as §1, §2, §3

[8] = tested on: green foxtail (Setaria viridis); settings: for Foxtail, Green plant response rating: 8 g ai/ha
Description: as §1, §2, §3

[9] = tested on: surinam grass (Brachiaria decumbens); settings: for Surinam Grass plant response rating: 8 g ai/ha
Description: as §1, §2, §3

[10] = tested on: wheat (Triticum aestivum); settings: for Wheat plant response rating: 8 g ai/ha
Description: as §1, §2, §3

wild oat (Avena fatua) = settings: for Oat, Wild plant response rating: 8 g ai/ha
Description: as §1, §2, §3

[11] = tested on: woolly cupgrass (Eriochloa villosa); settings: for Cupgrass, Woolly plant response rating: 8 g ai/ha
Description: as §1, §2, §3

[12] = tested on: yellow nutsedge (Cyperus esculentus)
Description: as §1, §2, §3

[13] = 16 g ai/ha, scale 0 to 100 (0 no effect, 100 complete control)
[14] = 31 g ai/ha, 0 to 100 scale, 0 no effect, 100 complete control
[15] = Postemergence, 16 g ai/ha, scale 0 to 100
[16] = Postemergence, 31 g ai/ha, scale 0 to 100, 0 no effect, 100 complete control
[17] = Postemergence, 62 g ai/ha, scale 0 to 100
[18] = Preemergence, 16 g ai/ha, scale 0 to 100 (0 no effect, 100 complete control)
[19] = Preemergence, 31 g ai/ha, 0 to 100 scale, 0 no effect, 100 complete control
[20] = Preemergence, 62 g ai/ha, scale 0 to 100

CCc1cc(-c2ccc(Cl)cc2)nn1-c1c(O)cnn(C)c1=O [Compound 21] was tested, and the “Plant response rating, Russian Thistle” value [1, 13] was 0, the “Plant response rating, Russian Thistle” value [1, 14] was 0 and the “Plant response rating, Russian Thistle” value ([1]; 62 g ai/ha, scale 0 to 100) was 0. For the same compound, the “Russian Thistle plant response rating” value ([1]; 8 g ai/ha, scale 0 to 100) was 0, the “Blackgrass plant response rating” value ([2]; postemergence, 0-100 scale) was 95 and the “Plant response rating, Blackgrass” value [2, 15] was 95. For the same compound, the “Plant response rating, Blackgrass” value [2, 16] was 100, the “Plant response rating, Blackgrass” value [2, 17] was 100 and the “Plant response rating, Blackgrass” value [2, 18] was 100. For the same compound, the “Plant response rating, Blackgrass” value [2, 19] was 100, the “Plant response rating, Blackgrass” value [2, 20] was 100 and the “Blackgrass plant response rating” value ([2]; Preemergence, scale 0 to 100) was 95. The “Cocklebur plant response rating” value ([3]; postemergence, 0-100 scale) was 0, the “Plant response rating, Cocklebur” value [3, 15] was 0 and the “Plant response rating, Cocklebur” value [3, 16] was 0. The “Plant response rating, Cocklebur” value [3, 17] was 0, the “Plant response rating, Cocklebur” value [3, 18] was 0 and the “Plant response rating, Cocklebur” value [3, 19] was 0. For the same compound, the “Plant response rating, Cocklebur” value [3, 20] was 0, the “Cocklebur plant response rating” value ([3]; Preemergence, scale 0 to 100) was 0 and the “Plant response rating, Sunflower” value [4, 13] was 0. For the same compound, the “Plant response rating, Sunflower” value [4, 14] was 0, the “Plant response rating, Sunflower” value ([4]; 62 g ai/ha, scale 0 to 100) was 0 and the “Ragweed plant response rating” value ([5]; postemergence, 0-100 scale) was 0. For the same compound, the “Plant response rating, Ragweed” value [5, 15] was 0, the “Plant response rating, Ragweed” value [5, 16] was 0 and the “Plant response rating, Ragweed” value [5, 17] was 0. For the same compound, the “Plant response rating, Ragweed” value [5, 18] was 0, the “Plant response rating, Ragweed” value [5, 19] was 0 and the “Plant response rating, Ragweed” value [5, 20] was 0. The “Ragweed plant response rating” value ([5]; Preemergence, scale 0 to 100) was 0, the “Corn plant response rating” value (corn (Zea mays); postemergence, 0-100 scale) was 50 and the “Plant response rating, Corn” value (corn (Zea mays); [15]) was 100. The “Plant response rating, Corn” value (corn (Zea mays); [16]) was 100, the “Plant response rating, Corn” value (corn (Zea mays); [17]) was 100 and the “Plant response rating, Corn” value (corn (Zea mays); [18]) was 80. The “Plant response rating, Corn” value (corn (Zea mays); [19]) was 95, the “Plant response rating, Corn” value (corn (Zea mays); [20]) was 98 and the “Corn plant response rating” value (corn (Zea mays); Preemergence, scale 0 to 100) was 70. The “Bromegrass, Downy plant response rating” value ([6]; postemergence, 0-100 scale) was 55, the “Plant response rating, Bromegrass, Downy” value [6, 15] was 55 and the “Plant response rating, Bromegrass, Downy” value [6, 16] was 80. The “Plant response rating, Bromegrass, Downy” value [6, 17] was 85, the “Plant response rating, Bromegrass, Downy” value [6, 18] was 50 and the “Plant response rating, Bromegrass, Downy” value [6, 19] was 60. For the same compound, the “Plant response rating, Bromegrass, Downy” value [6, 20] was 100, the “Bromegrass, Downy plant response rating” value ([6]; Preemergence, scale 0 to 100) was 0 and the “Plant response rating, Nightshade, E. B.” value [7, 13] was 0. For the same compound, the “Plant response rating, Nightshade, E. B.” value [7, 14] was 0, the “Nightshade, E. B. plant response rating” value ([7]; 8 g ai/ha, scale 0 to 100) was 0 and the “Foxtail, Green plant response rating” value ([8]; postemergence, 0-100 scale) was 95. For the same compound, the “Plant response rating, Foxtail, Green” value [8, 15] was 100, the “Plant response rating, Foxtail, Green” value [8, 16] was 100 and the “Plant response rating, Foxtail, Green” value [8, 17] was 100. The “Plant response rating, Foxtail, Green” value [8, 18] was 100, the “Plant response rating, Foxtail, Green” value [8, 19] was 100 and the “Plant response rating, Foxtail, Green” value [8, 20] was 100. For the same compound, the “Foxtail, Green plant response rating” value ([8]; Preemergence, scale 0 to 100) was 100, the “Surinam Grass plant response rating” value ([9]; postemergence, 0-100 scale) was 100 and the “Plant response rating, Surinam Grass” value [9, 15] was 100. For the same compound, the “Plant response rating, Surinam Grass” value [9, 16] was 100, the “Plant response rating, Surinam Grass” value [9, 17] was 100 and the “Plant response rating, Surinam Grass” value [9, 18] was 100. The “Plant response rating, Surinam Grass” value [9, 20] was 100, the “Surinam Grass plant response rating” value ([9]; Preemergence, scale 0 to 100) was 98 and the “Wheat plant response rating” value ([10]; postemergence, 0-100 scale) was 50. The “Plant response rating, Wheat” value [10, 15] was 85, the “Plant response rating, Wheat” value [10, 16] was 90 and the “Plant response rating, Wheat” value [10, 17] was 100. For the same compound, the “Plant response rating, Wheat” value [10, 18] was 30, the “Plant response rating, Wheat” value [10, 19] was 85 and the “Plant response rating, Wheat” value [10, 20] was 95. The “Wheat plant response rating” value ([10]; Preemergence, scale 0 to 100) was 0, the “Oat, Wild plant response rating” value (wild oat (Avena fatua); postemergence, 0-100 scale) was 98 and the “Plant response rating, Oat, Wild” value (wild oat (Avena fatua); [15]) was 100. The “Plant response rating, Oat, Wild” value (wild oat (Avena fatua); [16]) was 100, the “Plant response rating, Oat, Wild” value (wild oat (Avena fatua); [17]) was 100 and the “Plant response rating, Oat, Wild” value (wild oat (Avena fatua); [18]) was 85. For the same compound, the “Plant response rating, Oat, Wild” value (wild oat (Avena fatua); [19]) was 90, the “Plant response rating, Oat, Wild” value (wild oat (Avena fatua); [20]) was 95 and the “Oat, Wild plant response rating” value (wild oat (Avena fatua); Preemergence, scale 0 to 100) was 65. The “Cupgrass, Woolly plant response rating” value ([11]; postemergence, 0-100 scale) was 100, the “Plant response rating, Cupgrass, Woolly” value [11, 15] was 100 and the “Plant response rating, Cupgrass, Woolly” value [11, 16] was 100. For the same compound, the “Plant response rating, Cupgrass, Woolly” value [11, 17] was 100, the “Plant response rating, Cupgrass, Woolly” value [11, 18] was 100 and the “Plant response rating, Cupgrass, Woolly” value [11, 20] was 100. For the same compound, the “Cupgrass, Woolly plant response rating” value ([11]; Preemergence, scale 0 to 100) was 60, the “Nutsedge, Yellow plant response rating” value ([12]; 8 g ai/ha, postemergence, 0-100 scale) was 0 and the “Plant response rating, Nutsedge, Yellow” value [12, 15] was 0. For the same compound, the “Plant response rating, Nutsedge, Yellow” value [12, 16] was 0, the “Plant response rating, Nutsedge, Yellow” value [12, 17] was 0 and the “Plant response rating, Nutsedge, Yellow” value [12, 18] was 0. For the same compound, the “Plant response rating, Nutsedge, Yellow” value [12, 19] was 0 and the “Plant response rating, Nutsedge, Yellow” value [12, 20] was 0.
